From patent publication US12012403B2, “Aryl sulfonyl compounds as CCR6 inhibitors” (CHEMOCENTRYX, INC., priority 2021, dated 2024) come the findings set out here.

The experiment deals with T1, human CCR6 (Homo sapiens, UniProt P51684).
T1 construct: expressed in transfected cells; host or cells: Ba/F3 cells (murine pro-B line), hCCR6-transfected, CMV promoter, sodium butyrate induction
T1 sequence (P51684 1-374): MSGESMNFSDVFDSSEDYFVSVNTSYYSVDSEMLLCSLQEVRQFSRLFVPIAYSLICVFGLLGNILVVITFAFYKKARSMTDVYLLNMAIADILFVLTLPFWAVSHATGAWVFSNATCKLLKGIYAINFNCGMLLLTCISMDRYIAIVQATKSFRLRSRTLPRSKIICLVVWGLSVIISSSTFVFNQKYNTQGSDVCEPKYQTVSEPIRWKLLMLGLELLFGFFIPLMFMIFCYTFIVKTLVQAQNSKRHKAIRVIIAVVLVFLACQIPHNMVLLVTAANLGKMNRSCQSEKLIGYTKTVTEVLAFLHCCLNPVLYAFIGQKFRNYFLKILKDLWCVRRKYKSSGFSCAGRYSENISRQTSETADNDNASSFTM
Description: Migration (chemotaxis) assay, hCCR6-transfected Ba/F3 cells toward CCL20. The experiment is classed as cell-based. As to conditions: hCCR6-transfected Ba/F3 cells in human serum; recombinant human CCL20 10 nM; 37° C. 45 minutes; read-out: Potency (IC50 value in the migration assay). From the text:
A chemotaxis assay can be used to determine the efficacy of potential receptor antagonists at blocking the migration mediated through chemokine receptors, such as CCR6. This assay is routinely performed using the ChemoTX® microchamber system with a 5-μm pore-sized polycarbonate membrane. Chemokine receptor-expressing cells are required for such an assay. In this case, Ba/F3 cells (Palacios et al., Nature, 309:126, 1984) transfected with the gene for human CCR6 under control of the CMV promotor were used. To begin such an assay, hCCR6-transfected Ba/F3 cells are first grown for 24 hr in medium supplemented with sodium butyrate, which increases CCR6 transcription via the CMV promotor. The prepared Ba/F3 cells, are collected by centrifugation at 400×g at room temperature, then suspended at 4 million/ml in human serum. The compound being tested is serially diluted from a maximum final concentration of 10 μM (or an equivalent volume of its solvent (DMSO)) and is then added to the cell/serum mixture. Separately, recombinant human CCL20 (MIP-3α/LARC) at its EC50 concentration (10 nM) is placed in the lower wells of the ChemoTX® plate. The 5-μm (pore size) polycarbonate membrane is placed onto the plate, and 20 μL of the cell/compound mixture is transferred onto each well of the membrane. The plates are incubated at 37° C. for 45 minutes, after which the polycarbonate membranes are removed and 5 μl of the DNA-intercalating dye CyQUANT (Invitrogen, Carlsbad, CA) is added to the lower wells. The amount of fluorescence, corresponding to the number of migrated cells, is measured using a Spectrafluor Plus plate reader (TECAN, San Jose, CA).
On to `N#Cc1n[nH]c2ccc(-c3ccc(S(=O)(=O)[C@H]4CC[C@H](Nc5ccc(C(F)(F)F)cn5)CC4)cc3)cc12` [Example 1.072], for which the IC50 was below 5 nM.
As for `O=C1NCCc2cc(-c3ccc(S(=O)(=O)N4CCC(Nc5ccc(C(F)(F)F)cn5)CC4)cc3)ccc21` [Example 1.075], the IC50 was below 5 nM.
Consider `NC(=O)N[C@H]1CCCN(c2ccc(S(=O)(=O)N3CCC(Nc4ccc(C(F)(F)F)cn4)CC3)cc2)C1` [Example 1.191], for which the IC50 fell in the range of 100 to 10000 nM.
With `O=c1[nH]c2cc(-c3ccc(S(=O)(=O)N4CCC(Nc5ccc(C(F)(F)F)cn5)CC4)cc3)cnc2[nH]1` [Example 1.067] the figure was below 5 nM; with `CC(=O)NC1CC2(C1)CN(c1ccc(S(=O)(=O)N3CCC(Nc4ccc(C(F)(F)F)cn4)CC3)cc1)C2` [Example 1.163], 5 to 100 nM.
Regarding `O=c1[nH]c2cc(-c3ccc(S(=O)(=O)N4CCC(Nc5ccc(C(F)(F)F)cn5)CC4)cc3)ccc2o1` [Example 1.082], the IC50 lay within 5 to 100 nM.
As for `NC(=O)c1cnc2ccc(-c3ccc(S(=O)(=O)N4CCC(Nc5ccc(C(F)(F)F)cn5)CC4)cc3)cn12` [Example 1.085], the IC50 was below 5 nM.
`NC(=O)N1CCC12CN(c1ccc(S(=O)(=O)N3CCC(Nc4ccc(C(F)(F)F)cn4)CC3)cc1)C2` [Example 1.142]: the IC50 was in the range of 5 to 100 nM.
On to `O=C1CCc2ccc(-c3ccc(S(=O)(=O)N4CCC(Nc5ccc(C(F)(F)F)cn5)CC4)cc3)cc2N1` [Example 1.047], for which the IC50 was in the range of 5 to 100 nM.
The same measure for `CC(C)(C)OC(=O)NCCN1C(=O)C2(CC2)c2cc(-c3ccc(S(=O)(=O)N4CCC(Nc5ccc(C(F)(F)F)cn5)CC4)cc3)cnc21` [Example 1.004]: 5 to 100 nM.
In the case of `Nc1cc2cc(-c3ccc(S(=O)(=O)N4CCC(Nc5ccc(C(F)(F)F)cn5)CC4)cc3)cnc2o1` [Example 1.081], the IC50 was below 5 nM.
In the case of `O=S(=O)(c1ccc(N2CC[C@@H](O)C2)cc1)N1CCC(Nc2ccc(C(F)(F)F)cn2)CC1` [Example 1.186], the IC50 lay within 100 to 10000 nM.
The same measure for `O=S(=O)(c1ccc(-c2ccnc3[nH]ccc23)cc1)N1CCC(Nc2ccc(C(F)(F)F)cn2)CC1` [Example 1.083]: 5 to 100 nM; for `O=C1Cc2cc(-c3ccc(S(=O)(=O)N4CCC(Nc5ccc(C(F)(F)F)cc5)CC4)cc3)ccc2N1` [Example 1.050]: 5 to 100 nM.
Turning to `N#Cc1ccc2nc(-c3ccc(S(=O)(=O)N4CCC(Nc5ccc(C(F)(F)F)cn5)CC4)cc3)sc2c1` [Example 1.060], the IC50 fell in the range of 5 to 100 nM.
The same measure for `O=S(=O)(c1ccc(N2CCC(O)CC2)nc1)N1CCC(Nc2ccc(C(F)(F)F)cn2)CC1` [Example 1.209]: 100 to 10000 nM.
As for `O=C1NC(=O)C2(CCN(c3ccc(S(=O)(=O)N4CCC(Nc5ccc(C(F)(F)F)cn5)CC4)cc3)CC2)N1` [Example 1.151], the IC50 is below 5 nM.
Turning to `O=S(=O)(c1ccc(-c2nc3c(s2)CNCC3)cc1)N1CCC(Nc2ccc(C(F)(F)F)cn2)CC1` [Example 1.106], the IC50 was 100 to 10000 nM.
For `N=[S@](=O)(c1ccc(-c2ccc3[nH]cnc3c2)cc1)N1CCC(Nc2ccc(C(F)(F)F)cc2)CC1` [Example 1.104], the IC50 was 5 to 100 nM.
As to `O=C1Nc2ncc(-c3ccc(S(=O)(=O)N4CCC(Nc5ccc(C(F)(F)F)cn5)CC4)cc3)cc2C12CCOCC2` [Example 1.064], the IC50 was below 5 nM.
As for `O=C1NCCCC12CCN(c1ccc(S(=O)(=O)N3CCC(Nc4ccc(C(F)(F)F)cn4)CC3)cc1)CC2` [Example 1.165], the IC50 was below 5 nM.
With `CC(=O)N1CCCC(c2ccc(S(=O)(=O)N3CCC(Nc4ccc(C(F)(F)F)cn4)CC3)cc2)C1` (stereo not drawn) [Example 1.183], the IC50 lay within 5 to 100 nM.
Take `CC(C)(C)OC(=O)N1CC=C(c2ccc(S(=O)(=O)N3CCC(Nc4ccc(C(F)(F)F)cn4)CC3)cc2)CC1` [Example 1.234]: the IC50 fell in the range of 5 to 100 nM.
The same measure for `O=c1[nH]c2ncc(-c3ccc(S(=O)(=O)N4CCC(Nc5ccc(C(F)(F)F)cn5)CC4)cc3)cc2o1` [Example 1.065]: 5 to 100 nM; for `O=C1Cc2ccc(-c3ccc(S(=O)(=O)N4CCC(Nc5ccc(C(F)(F)F)cn5)CC4)cc3)cc2CN1` [Example 1.007]: 5 to 100 nM; for `NC(=O)N1CC(C2CN(c3ccc(S(=O)(=O)N4CCC(Nc5ccc(C(F)(F)F)cn5)CC4)cc3)C2)C1` [Example 1.145]: 5 to 100 nM.
With `CC(=O)NCC(=O)N1CCN(c2ccc(S(=O)(=O)N3CCC(Nc4ccc(C(F)(F)F)cn4)CC3)cc2)CC1` [Example 1.164] the figure was 100 to 10000 nM; with `O=S(=O)(c1ccc(N2CCN3C[C@H](O)C[C@H]3C2)cc1)N1CCC(Nc2ccc(C(F)(F)F)cn2)CC1` (racemic) [Example 1.178], 100 to 10000 nM.
The same measure for `N#Cc1cn(CCO)c2ncc(-c3ccc(S(=O)(=O)N4CCC(Nc5ccc(C(F)(F)F)cn5)CC4)cc3)cc12` [Example 1.029]: below 5 nM; for `O=C1NCC2(CCN(c3ccc(S(=O)(=O)N4CCC(Nc5ccc(C(F)(F)F)cn5)CC4)cc3)CC2)N1` [Example 1.150]: 5 to 100 nM.
`O=C1NS(=O)(=O)c2cc(-c3ccc(S(=O)(=O)N4CCC(Nc5ccc(C(F)(F)F)cn5)CC4)cc3)ccc21` [Example 1.062]: the IC50 was in the range of 5 to 100 nM.
Take `O=C1Cc2ncc(-c3ccc(S(=O)(=O)N4CCC(Nc5ccc(C(F)(F)F)cn5)CC4)cc3)cc2N1` [Example 1.022]: the IC50 was 5 to 100 nM.
With `NC(=O)N1Cc2ccc(-c3ccc(S(=O)(=O)N4CCC(Nc5ccc(C(F)(F)F)cn5)CC4)cc3)cc2C1` [Example 1.054], the IC50 is below 5 nM.
Consider `O=S(=O)(c1ccc(N2CCc3[nH]ncc3C2)cc1)N1CCC(Nc2ccc(C(F)(F)F)cn2)CC1` [Example 1.214], for which the IC50 lay in the range of 5 to 100 nM.
As to `O=c1[nH]c2ccc(-c3ccc(S(=O)(=O)N4CCC(Nc5ccc(C(F)(F)F)cn5)CC4)cc3)cc2n1C1CC1` [Example 1.052], the IC50 is 5 to 100 nM.
Turning to `CC(C)(C)OC(=O)NCC1CN(c2ccc(S(=O)(=O)N3CCC(Nc4ccc(C(F)(F)F)cn4)CC3)cc2)C1` [Example 1.143], the IC50 was in the range of 5 to 100 nM.
With `O=S(=O)(c1ccc(-c2ccc3[nH]ccc3c2)cc1)N1CCC(Nc2ccc(C(F)(F)F)cn2)CC1` [Example 1.119] the figure was 100 to 10000 nM; with `O=C1NS(=O)(=O)c2ccc(-c3ccc(S(=O)(=O)N4CCC(Nc5ccc(C(F)(F)F)cn5)CC4)cc3)cc21` [Example 1.063], 5 to 100 nM.
As for `O=S(=O)(c1ccc(N2CCC(Cc3ncc[nH]3)CC2)cc1)N1CCC(Nc2ccc(C(F)(F)F)cn2)CC1` [Example 1.131], the IC50 lay within 100 to 10000 nM.
With `O=S(=O)(c1ccc(N2CCN(c3nnc[nH]3)CC2)cc1)N1CCC(Nc2ccc(C(F)(F)F)cn2)CC1` [Example 1.174] the figure was 100 to 10000 nM.
Consider `NC(=O)C1(C2CCN(c3ccc(S(=O)(=O)N4CCC(Nc5ccc(C(F)(F)F)cn5)CC4)cc3)CC2)CC1` [Example 1.124], for which the IC50 was in the range of 5 to 100 nM.
The same measure for `NC(=O)N1C[C@@H]2CN(c3ccc(S(=O)(=O)N4CCC(Nc5ccc(C(F)(F)F)cn5)CC4)cc3)C[C@@H]2C1` [Example 1.176]: 5 to 100 nM; for `CC(=O)N[C@H]1CCN(c2ccc(S(=O)(=O)N3CCC(Nc4ccc(C(F)(F)F)cn4)CC3)cc2)C1` [Example 1.192]: 100 to 10000 nM; for `O=S(=O)(c1ccc(N2CCC(CO)CC2)cc1)N1CCC(Nc2ccc(C(F)(F)F)cn2)CC1` [Example 1.188]: 5 to 100 nM.
On to `O=S(=O)(c1ccc(N2CCC(c3nnn[nH]3)CC2)cc1)N1CCC(Nc2ccc(C(F)(F)F)cn2)CC1` [Example 1.128], for which the IC50 lay within 100 to 10000 nM.
As for `N#CC1CCN(c2ccc(S(=O)(=O)N3CCC(Nc4ccc(C(F)(F)F)cn4)CC3)cc2)CC1` [Example 1.171], the IC50 fell in the range of 100 to 10000 nM.
As to `O=S(=O)(c1ccc(C2=CCOCC2)cc1)N1CCC(Nc2ccc(C(F)(F)F)cn2)CC1` [Example 1.236], the IC50 lay in the range of 5 to 100 nM.
As to `N#Cc1cn(CC(N)=O)c2ncc(-c3ccc(S(=O)(=O)N4CCC(Nc5ccc(C(F)(F)F)cn5)CC4)cc3)cc12` [Example 1.039], the IC50 was below 5 nM.
The same measure for `NC(=O)CN1CCN(c2ccc(S(=O)(=O)N3CCC(Nc4ccc(C(F)(F)F)cn4)CC3)cc2)CC1` [Example 1.122]: 5 to 100 nM; for `CC(C)(C)OC(=O)N[C@@H]1CCN(c2ccc(S(=O)(=O)N3CCC(Nc4ccc(C(F)(F)F)cn4)CC3)cc2)C1` [Example 1.212]: 100 to 10000 nM.
In the case of `NC(=O)C1CN(c2ccc(S(=O)(=O)N3CCC(Nc4ccc(C(F)(F)F)cn4)CC3)cc2)C1` [Example 1.196], the IC50 fell in the range of 100 to 10000 nM.
